Key:
[1] = biological target: T1, Folylpolyglutamate synthase, mitochondrial (Mus musculus) (UniProt P48760); test: Concentration required go get half the maximal reaction with Folyl-polyglutamate synthase
T1 sequence (whole entry): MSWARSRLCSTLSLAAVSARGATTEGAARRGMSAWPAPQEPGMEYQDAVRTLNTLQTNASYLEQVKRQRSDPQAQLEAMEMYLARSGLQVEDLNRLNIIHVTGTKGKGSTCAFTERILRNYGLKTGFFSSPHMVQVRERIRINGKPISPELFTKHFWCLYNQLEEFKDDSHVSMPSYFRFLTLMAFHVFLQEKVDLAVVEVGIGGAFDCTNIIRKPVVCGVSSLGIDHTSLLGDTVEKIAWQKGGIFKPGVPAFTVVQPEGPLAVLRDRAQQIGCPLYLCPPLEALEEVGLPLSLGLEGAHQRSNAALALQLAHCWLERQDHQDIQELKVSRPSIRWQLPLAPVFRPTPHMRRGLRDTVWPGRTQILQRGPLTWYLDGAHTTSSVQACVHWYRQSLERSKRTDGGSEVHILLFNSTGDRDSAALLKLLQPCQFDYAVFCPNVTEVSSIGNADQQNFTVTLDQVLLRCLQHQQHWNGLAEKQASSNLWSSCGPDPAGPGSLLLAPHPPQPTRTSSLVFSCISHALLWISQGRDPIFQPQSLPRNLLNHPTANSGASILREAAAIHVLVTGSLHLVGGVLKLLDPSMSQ

[2] = biological target: T1, Folylpolyglutamate synthase, mitochondrial (Mus musculus); test: Compound was evaluated for reaction rate of compound in mouse liver Folyl-polyglutamate synthase for 1 hr at a conc of 500 uM ([3H]L-glutamate incorporated)
[3] = biological target: T1, Folylpolyglutamate synthase, mitochondrial (Mus musculus); test: Compound was evaluated for reaction rate of compound in mouse liver Folyl-polyglutamate synthase ([3H]L-glutamate incorporated)

Concentration [1]	Reaction rate [2]	Reaction rate [3]	Compound
163 µM	0.7 nM/h	–	CN(Cc1cnc2nc(N)nc(N)c2n1)c1ccc(C(=O)NC(CCC(=O)NC(CCC(=O)O)C(=O)O)C(=O)O)cc1 (stereo not given)
–	–	1.23 nM/h	CN(Cc1cnc2nc(N)nc(N)c2n1)c1ccc(C(=O)NC(CCC(=O)NC(CCC(=O)O)C(=O)O)C(=O)O)cc1.CN(Cc1cnc2nc(N)nc(N)c2n1)c1ccc(C(=O)NC(CCC(=O)O)C(=O)O)cc1 (stereo not given)
47 µM	–	1.71 nM/h	CN(Cc1cnc2nc(N)nc(N)c2n1)c1ccc(C(=O)N[C@@H](CCC(=O)O)C(=O)O)cc1

Source: ChEMBL document CHEMBL1122778, “A mechanism for the addition of multiple moles of glutamate by folylpolyglutamate synthetase” (J Med Chem, 1984)
